In the NIST ThermoML archive (doi:10.1021/je800999s):
± gives the expanded uncertainty stated by the source.

Assay: molar heat capacity at constant pressure; xn = mol fraction of the nth substance listed
Conditions: 101 kPa, Liquid, Large sample (1 g) DSC

For `COCCOCCOCCOC` [2,5,8,11-tetraoxadodecane] + O, the “molar heat capacity at constant pressure” value (303.15 K, x1 = 0.0999) was 109 ± 5 J/K/mol, the “molar heat capacity at constant pressure” value (303.15 K, x1 = 0.1997) was 141 ± 6 J/K/mol and the “molar heat capacity at constant pressure” value (303.15 K, x1 = 0.2967) was 171 ± 7 J/K/mol. For the same molecule, the “molar heat capacity at constant pressure” value (303.15 K, x1 = 0.3977) was 198 ± 8 J/K/mol, the “molar heat capacity at constant pressure” value (303.15 K, x1 = 0.4983) was 224 ± 10 J/K/mol and the “molar heat capacity at constant pressure” value (303.15 K, x1 = 0.5918) was 250 ± 11 J/K/mol. For the same molecule, the “molar heat capacity at constant pressure” value (303.15 K, x1 = 0.6926) was 275 ± 12 J/K/mol, the “molar heat capacity at constant pressure” value (303.15 K, x1 = 0.7941) was 300 ± 13 J/K/mol and the “molar heat capacity at constant pressure” value (303.15 K, x1 = 0.8686) was 328 ± 14 J/K/mol. The “molar heat capacity at constant pressure” value (303.15 K, x1 = 1) was 359 ± 15 J/K/mol, the “molar heat capacity at constant pressure” value (308.15 K, x1 = 0.0999) was 110 ± 5 J/K/mol and the “molar heat capacity at constant pressure” value (308.15 K, x1 = 0.1997) was 143 ± 6 J/K/mol. For the same molecule, the “molar heat capacity at constant pressure” value (308.15 K, x1 = 0.2967) was 173 ± 7 J/K/mol, the “molar heat capacity at constant pressure” value (308.15 K, x1 = 0.3977) was 200 ± 9 J/K/mol and the “molar heat capacity at constant pressure” value (308.15 K, x1 = 0.4983) was 227 ± 10 J/K/mol. For the same molecule, the “molar heat capacity at constant pressure” value (308.15 K, x1 = 0.5918) was 253 ± 11 J/K/mol, the “molar heat capacity at constant pressure” value (308.15 K, x1 = 0.6926) was 278 ± 12 J/K/mol and the “molar heat capacity at constant pressure” value (308.15 K, x1 = 0.7941) was 304 ± 13 J/K/mol. For the same molecule, the “molar heat capacity at constant pressure” value (308.15 K, x1 = 0.8686) was 332 ± 14 J/K/mol, the “molar heat capacity at constant pressure” value (308.15 K, x1 = 1) was 364 ± 15 J/K/mol and the “molar heat capacity at constant pressure” value (313.15 K, x1 = 0.0999) was 111 ± 5 J/K/mol. For the same molecule, the “molar heat capacity at constant pressure” value (313.15 K, x1 = 0.1997) was 144 ± 6 J/K/mol, the “molar heat capacity at constant pressure” value (313.15 K, x1 = 0.2967) was 174 ± 7 J/K/mol and the “molar heat capacity at constant pressure” value (313.15 K, x1 = 0.3977) was 202 ± 9 J/K/mol. For the same molecule, the “molar heat capacity at constant pressure” value (313.15 K, x1 = 0.4983) was 228 ± 10 J/K/mol, the “molar heat capacity at constant pressure” value (313.15 K, x1 = 0.5918) was 254 ± 11 J/K/mol and the “molar heat capacity at constant pressure” value (313.15 K, x1 = 0.6926) was 279 ± 12 J/K/mol. The “molar heat capacity at constant pressure” value (313.15 K, x1 = 0.7941) was 306 ± 13 J/K/mol, the “molar heat capacity at constant pressure” value (313.15 K, x1 = 0.8686) was 334 ± 14 J/K/mol and the “molar heat capacity at constant pressure” value (313.15 K, x1 = 1) was 366 ± 16 J/K/mol. The “molar heat capacity at constant pressure” value (318.15 K, x1 = 0.0999) was 112 ± 5 J/K/mol, the “molar heat capacity at constant pressure” value (318.15 K, x1 = 0.1997) was 145 ± 6 J/K/mol and the “molar heat capacity at constant pressure” value (318.15 K, x1 = 0.2967) was 175 ± 7 J/K/mol. The “molar heat capacity at constant pressure” value (318.15 K, x1 = 0.3977) was 203 ± 9 J/K/mol, the “molar heat capacity at constant pressure” value (318.15 K, x1 = 0.4983) was 229 ± 10 J/K/mol and the “molar heat capacity at constant pressure” value (318.15 K, x1 = 0.5918) was 255 ± 11 J/K/mol. The “molar heat capacity at constant pressure” value (318.15 K, x1 = 0.6926) was 281 ± 12 J/K/mol, the “molar heat capacity at constant pressure” value (318.15 K, x1 = 0.7941) was 307 ± 13 J/K/mol and the “molar heat capacity at constant pressure” value (318.15 K, x1 = 0.8686) was 335 ± 14 J/K/mol. For the same molecule, the “molar heat capacity at constant pressure” value (318.15 K, x1 = 1) was 368 ± 16 J/K/mol, the “molar heat capacity at constant pressure” value (323.15 K, x1 = 0.0999) was 112 ± 5 J/K/mol and the “molar heat capacity at constant pressure” value (323.15 K, x1 = 0.1997) was 146 ± 6 J/K/mol. The “molar heat capacity at constant pressure” value (323.15 K, x1 = 0.2967) was 176 ± 7 J/K/mol, the “molar heat capacity at constant pressure” value (323.15 K, x1 = 0.3977) was 204 ± 9 J/K/mol and the “molar heat capacity at constant pressure” value (323.15 K, x1 = 0.4983) was 231 ± 10 J/K/mol. For the same molecule, the “molar heat capacity at constant pressure” value (323.15 K, x1 = 0.5918) was 256 ± 11 J/K/mol, the “molar heat capacity at constant pressure” value (323.15 K, x1 = 0.6926) was 282 ± 12 J/K/mol and the “molar heat capacity at constant pressure” value (323.15 K, x1 = 0.7941) was 309 ± 13 J/K/mol. For the same molecule, the “molar heat capacity at constant pressure” value (323.15 K, x1 = 0.8686) was 337 ± 14 J/K/mol, the “molar heat capacity at constant pressure” value (323.15 K, x1 = 1) was 370 ± 16 J/K/mol and the “molar heat capacity at constant pressure” value (328.15 K, x1 = 0.0999) was 113 ± 5 J/K/mol. For the same molecule, the “molar heat capacity at constant pressure” value (328.15 K, x1 = 0.1997) was 147 ± 6 J/K/mol, the “molar heat capacity at constant pressure” value (328.15 K, x1 = 0.2967) was 177 ± 8 J/K/mol and the “molar heat capacity at constant pressure” value (328.15 K, x1 = 0.3977) was 206 ± 9 J/K/mol. The “molar heat capacity at constant pressure” value (328.15 K, x1 = 0.4983) was 232 ± 10 J/K/mol, the “molar heat capacity at constant pressure” value (328.15 K, x1 = 0.5918) was 258 ± 11 J/K/mol and the “molar heat capacity at constant pressure” value (328.15 K, x1 = 0.6926) was 283 ± 12 J/K/mol. For the same molecule, the “molar heat capacity at constant pressure” value (328.15 K, x1 = 0.7941) was 310 ± 13 J/K/mol, the “molar heat capacity at constant pressure” value (328.15 K, x1 = 0.8686) was 339 ± 14 J/K/mol and the “molar heat capacity at constant pressure” value (328.15 K, x1 = 1) was 371 ± 16 J/K/mol. For the same molecule, the “molar heat capacity at constant pressure” value (333.15 K, x1 = 0.0999) was 114 ± 5 J/K/mol, the “molar heat capacity at constant pressure” value (333.15 K, x1 = 0.1997) was 148 ± 6 J/K/mol and the “molar heat capacity at constant pressure” value (333.15 K, x1 = 0.2967) was 179 ± 8 J/K/mol. For the same molecule, the “molar heat capacity at constant pressure” value (333.15 K, x1 = 0.3977) was 207 ± 9 J/K/mol, the “molar heat capacity at constant pressure” value (333.15 K, x1 = 0.4983) was 233 ± 10 J/K/mol and the “molar heat capacity at constant pressure” value (333.15 K, x1 = 0.5918) was 259 ± 11 J/K/mol. The “molar heat capacity at constant pressure” value (333.15 K, x1 = 0.6926) was 285 ± 12 J/K/mol, the “molar heat capacity at constant pressure” value (333.15 K, x1 = 0.7941) was 312 ± 13 J/K/mol and the “molar heat capacity at constant pressure” value (333.15 K, x1 = 0.8686) was 341 ± 14 J/K/mol. The “molar heat capacity at constant pressure” value (333.15 K, x1 = 1) was 373 ± 16 J/K/mol, the “molar heat capacity at constant pressure” value (338.15 K, x1 = 0.0999) was 114 ± 5 J/K/mol and the “molar heat capacity at constant pressure” value (338.15 K, x1 = 0.1997) was 149 ± 6 J/K/mol. For the same molecule, the “molar heat capacity at constant pressure” value (338.15 K, x1 = 0.2967) was 180 ± 8 J/K/mol, the “molar heat capacity at constant pressure” value (338.15 K, x1 = 0.3977) was 208 ± 9 J/K/mol and the “molar heat capacity at constant pressure” value (338.15 K, x1 = 0.4983) was 235 ± 10 J/K/mol. The “molar heat capacity at constant pressure” value (338.15 K, x1 = 0.5918) was 261 ± 11 J/K/mol, the “molar heat capacity at constant pressure” value (338.15 K, x1 = 0.6926) was 286 ± 12 J/K/mol and the “molar heat capacity at constant pressure” value (338.15 K, x1 = 0.7941) was 313 ± 13 J/K/mol. The “molar heat capacity at constant pressure” value (338.15 K, x1 = 0.8686) was 342 ± 15 J/K/mol, the “molar heat capacity at constant pressure” value (338.15 K, x1 = 1) was 375 ± 16 J/K/mol and the “molar heat capacity at constant pressure” value (343.15 K, x1 = 0.0999) was 115 ± 5 J/K/mol. For the same molecule, the “molar heat capacity at constant pressure” value (343.15 K, x1 = 0.1997) was 150 ± 6 J/K/mol, the “molar heat capacity at constant pressure” value (343.15 K, x1 = 0.2967) was 181 ± 8 J/K/mol and the “molar heat capacity at constant pressure” value (343.15 K, x1 = 0.3977) was 210 ± 9 J/K/mol. The “molar heat capacity at constant pressure” value (343.15 K, x1 = 0.4983) was 237 ± 10 J/K/mol, the “molar heat capacity at constant pressure” value (343.15 K, x1 = 0.5918) was 263 ± 11 J/K/mol and the “molar heat capacity at constant pressure” value (343.15 K, x1 = 0.6926) was 289 ± 12 J/K/mol. For the same molecule, the “molar heat capacity at constant pressure” value (343.15 K, x1 = 0.7941) was 316 ± 13 J/K/mol, the “molar heat capacity at constant pressure” value (343.15 K, x1 = 0.8686) was 345 ± 15 J/K/mol and the “molar heat capacity at constant pressure” value (343.15 K, x1 = 1) was 379 ± 16 J/K/mol. For the same molecule, the “molar heat capacity at constant pressure” value (348.15 K, x1 = 0.0999) was 116 ± 5 J/K/mol, the “molar heat capacity at constant pressure” value (348.15 K, x1 = 0.1997) was 151 ± 6 J/K/mol and the “molar heat capacity at constant pressure” value (348.15 K, x1 = 0.2967) was 183 ± 8 J/K/mol. The “molar heat capacity at constant pressure” value (348.15 K, x1 = 0.3977) was 211 ± 9 J/K/mol, the “molar heat capacity at constant pressure” value (348.15 K, x1 = 0.4983) was 238 ± 10 J/K/mol and the “molar heat capacity at constant pressure” value (348.15 K, x1 = 0.5918) was 264 ± 11 J/K/mol. For the same molecule, the “molar heat capacity at constant pressure” value (348.15 K, x1 = 0.6926) was 290 ± 12 J/K/mol, the “molar heat capacity at constant pressure” value (348.15 K, x1 = 0.7941) was 318 ± 14 J/K/mol and the “molar heat capacity at constant pressure” value (348.15 K, x1 = 0.8686) was 347 ± 15 J/K/mol. The “molar heat capacity at constant pressure” value (348.15 K, x1 = 1) was 381 ± 16 J/K/mol, the “molar heat capacity at constant pressure” value (353.15 K, x1 = 0.0999) was 116 ± 5 J/K/mol and the “molar heat capacity at constant pressure” value (353.15 K, x1 = 0.1997) was 152 ± 6 J/K/mol. For the same molecule, the “molar heat capacity at constant pressure” value (353.15 K, x1 = 0.2967) was 184 ± 8 J/K/mol, the “molar heat capacity at constant pressure” value (353.15 K, x1 = 0.3977) was 212 ± 9 J/K/mol and the “molar heat capacity at constant pressure” value (353.15 K, x1 = 0.4983) was 239 ± 10 J/K/mol. The “molar heat capacity at constant pressure” value (353.15 K, x1 = 0.5918) was 265 ± 11 J/K/mol, the “molar heat capacity at constant pressure” value (353.15 K, x1 = 0.6926) was 291 ± 12 J/K/mol and the “molar heat capacity at constant pressure” value (353.15 K, x1 = 0.7941) was 318 ± 14 J/K/mol. For the same molecule, the “molar heat capacity at constant pressure” value (353.15 K, x1 = 0.8686) was 348 ± 15 J/K/mol and the “molar heat capacity at constant pressure” value (353.15 K, x1 = 1) was 382 ± 16 J/K/mol.
